Reference: patent US8592419B2, “Ceramides and apoptosis-signaling ligand” (MUSC Foundation for Research Development, priority 2004, dated 2013)

How the values were obtained:
Type in all cases: cell-based, human
PPC-1/pcDNA3 cells = assay: MTS cell viability assay in PPC-1/pcDNA3 cells with kinase inhibitors; conditions: 20 μM SB-203580, 40 μM SP600125, LCL204 8 hours
Description: MTS cytotoxicity assays for LCL204 treatments. Cell viability was determined using the CellTiter 96 AQueous One Solution Cell Proliferation Assay (Promega; Madison, Wis., USA). 1×10^4 cells per well were seeded in 96-well plates overnight. The next day media was removed and replaced with either 100 μl media with vehicle control or media containing LCL204 at desired concentrations. Assays were carried out according to manufacturer's instruction as previously described (60). For experiments using enzyme inhibitors and LCL204, media was removed and replaced with 50 μl media containing vehicle only or indicated inhibitor. Cells were pretreated 1 hour at 37° C. before adding 50 μl media containing vehicle, inhibitor only, LCL204 only (2× concentration), or a combination. The remainder of the assay was carried out as described above.
Stable transfections. Both CMV-TAM67 and pcDNA3 vectors were from Dr. Michael Birrer (National Cancer Institute; Rockville, Md.). PPC-1 cells (7×10^5) were transfected with 4 μg of DNA in 60 mm dishes using FuGENE6 according to the manufacturer's instructions. Stably transfected clones were selected in 400 μg/mL G418 (Sigma). TAM67 was detected by Western blot analysis using an antibody for c-Jun (Ab-1, Oncogene) as described above.

Bak = Bak protein level and Bak foci (Western blot, confocal microscopy); conditions: PPC-1 transfectants, with LCL204 7.5 μM
Description: (§1) Immunoblot analysis. Cells were seeded in 60mm plates as described above and treated accordingly. Cells were lifted by gently scraping the plates, washed once with ice cold PBS and then lysed in lysis buffer (PBS, 1% Triton X-100, 10% glycerol) containing protease inhibitors pepstatin A (0.5 μg/ml), leupeptin (0.5 μg/ml), aprotinin (5 μg/ml), and PMSF (100 μg/ml) for 10 minutes on ice. Insoluble material was removed by centrifugation at 14,000 rpm for 15 minutes at 4° C. The supernatants were then supplemented with SDS at a final concentration of 2% and stored at −80° C. Protein concentrations were determined using the DC Protein Assay (BioRad Laboratories; Hercules, CA, USA) according to the manufacturer's instructions. 50 μg of protein per sample (unless otherwise indicated) were separated on NuPAGE 4-12% Bis-Tris gels (Invitrogen; Carlsbad, CA, USA) and transferred to nitrocellulose membranes (BioRad). Following transfer, membranes were blocked for 1 hour at room temperature in Tris-buffered saline (TBS) containing 0.1% Tween-20 and 5% nonfat dry milk and incubated overnight at 4° C. with primary antibody at a dilution of 1:2,000(actin), 1:1,000(cytochrome c, COX IV, Bax, Bak, p53, p38, P-p38), 1:500(P-JNK, JNK), 1:250 (AC, p73), or 1:400(LAMP-1, cathepsin B). Overnight incubations were performed in 5% milk in TBS-Tween. Following overnight incubation, membranes were washed three times for 10 minutes each in TBS-Tween and incubated for 1 hour at room temperature with secondary antibody in 5% milk TBS-Tween at a dilution 1:5,000 (goat anti-mouse IgG) or 1:50,000 (goat anti-rabbit). Membranes were then washed three times more and incubated for 5 minutes at room temperature with Super Signal HRP substrate (Pierce Biotechnology Inc.; Rockford, IL, USA).
Confocal Microscopy and Immunocytochemistry. DU145 cells were grown in 4.3 cm^2 chamber slides (Nalge Nunc) and transfected with YFPmito alone or with the dominant-negative inhibitor of Drp1(K38A) (64) using FuGENE6 (Roche; Indianapolis, IN) according to the manufacturer's instructions using 1 μg of total DNA per chamber. 24 hr after transfection and 30 min prior to treatment with 15 μM LCL204, cells were exposed to zVAD-fmk (50 μM). The slides were fixed with 4% paraformaldehyde for 20 min then permeabilized with 0.2% Triton X-100 for 15 min, followed by blocking with 4% bovine serum albumin for 45 min at RT. Cells were probed with rabbit polyclonal 2-14 anti-Bak antibody (1:5000; BioChem) for 2 hr then stained with goat anti-rabbit Alexa Fluor 543 antibodies (1:250; Molecular Probes) for 45 min. After washing, cells were imaged using the 63x objective of an LSM 510 Zeiss confocal microscope.

p73 = assay: Immunoblot of p73
Description: as §1

**Q.** `C[S+]([O-])c1ccc(-c2nc(-c3ccncc3)c(-c3ccc(F)cc3)[nH]2)cc1` (stereo not shown) [SB-203580, reference compound] was tested. Which “effect on LCL204 cell killing” value (PPC-1/pcDNA3 cells) did it give?
**A.** inhibited cell killing to a similar extent

**Q.** What about the “effect of p38 MAPK inhibitor on LCL204-mediated Bak protein levels” value (Bak) of the same compound?
**A.** did not appear to block

**Q.** And the “basal p73 levels, inhibitor alone” value (p73; PPC-1/pcDNA3 and PPC-1/TAM67 cells, 5 hours)?
**A.** lowered basal p73 levels

**Q.** And the “effect of kinase inhibitor on LCL204-induced p73 induction” value (p73; PPC-1 transfectants, with LCL204 7.5 μM)?
**A.** blocked the LCL204-induced p73 up-regulation
